{
  "source": "paper PMC9916762",
  "about": "“Impact of Hydrophobic Chains in Five-Coordinate Glucoconjugate Pt(II) Anticancer Agents” (International Journal of Molecular Sciences, 2023)",
  "tested_on": "SVT2 cells",
  "assay": "Western blot of pro-caspases 9 and 3, SVT2",
  "type": "cell-based, murine",
  "conditions": "SVT2, 9.8 μM, 48 h",
  "description": "In particular, SVT2 and A431 were incubated for 48 h with 1-Me,Me and 1-Oct,Me, using the IC50 value concentrations. At the end of incubation, uptake and cell death mechanisms were evaluated. […] Finally, apoptosis was investigated by Western blot analyses using specific antibodies against pro-caspases 9 and 3.\nThe SVT2 were seeded on six-well plates at a density of 2.5 × 10^5 cells/well, whereas A431 was seeded at a density of 3 × 10^5 cells/well. After 24 h, cells were treated with 9.8 μM of 1-Me,Me or 2.3 μM 1-Oct,Me. After 48 h of incubation, Western blot analyses were performed by using pro-caspase 9 (Cell Signaling Technology, Danvers, MA, USA) and pro-caspase 3 (Abcam, Cambridge, MA, USA) antibodies, as reported by Del Giudice et al. Protein intensity levels were normalized using β-actin (Sigma-Aldrich, St. Louis, MO, USA). The chemiluminescence detection system was purchased from Bio-Rad (Hercules, CA, USA).",
  "data": [
    {"substance": "Platinum(1+), (2,9-dimethyl-1,10-phenanthroline- N1,N10)(η2-ethene)methyl[1,3-dihydro-1,3-dimethyl-4-[1-[2,3,4,6-tetrakis-O-(acetyl)-β-D-glucopyranosyl]-1H-1,2,3-triazol-4-yl]-2H-imidazol-2-ylidene], 1,1,1-trifluoromethanesulfonate [1-Me,Me]", "values": [
      {"measurement": "pro-caspases 9 and 3 levels", "result": "significant decrease in pro-caspases 9 and 3 levels"}
    ]}
  ]
}
